# Measured values from US20260250318A1, “COMPOSITIONS AND METHODS FOR CROSSING THE BLOOD BRAIN BARRIER” (VOYAGER THERAPEUTICS, INC., priority 2022, published 2026).
# System: brain
# Experiment: NGS fold enrichment of synthetic library (passage 3) in BALB/c mice, first cross-species screen
# Format: in vivo
# Details: synthetic library passage 3, intravenous, RNA NGS, brain of BALB/c mice, relative to wild-type AAV9
# Summary of the method: (§1)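 Passage-3 synthetic capsid library given intravenously […] to NHPs (2-4 years) and BALB/c or C57Bl/6 mice (n=3, 6-8 weeks). After e.g. 28 days, tissue RNA was RT-PCR amplified and NGS-sequenced; values are fold enrichment of each variant relative to wild-type AAV9.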
row,Sequence,Fold enrichment over AAV9 in the brain of Mice (BALB/c)
1,GSGQVHQAEVNQQT,0.287 fold
2,GFNGSPSSGQNQQT,0.924 fold
3,GDSSLRHSGQNQQT,0.412 fold
4,GGQVAPSSGQNQQT,0.709 fold
5,GMDHSRPSGQNQQT,0.648 fold
6,GSGQNQQTLPSLSL,0.175 fold
7,GSGQNQHSAPFNQT,0.870 fold
8,GPGLSGHSGQNQQT,1.297 fold
9,GSGQNQQTMIANIR,0.458 fold
10,GSGQILHSVPNQQT,0.240 fold
11,GWERSFVSGQNQQT,0.538 fold
12,GRGQNVSSVHRQQT,0.691 fold
13,GSGIQSSYSQNQQT,0.684 fold
14,GSGQNQQTAIYRNI,1.437 fold
15,GSAQVSMVGQNQQT,0.285 fold
16,GSGQNQQPSSRVTT,0.504 fold
17,GSGKVTKQSQNQQT,1.035 fold
18,GILLATPSGQNQQT,0.288 fold
19,GSGKGHSAGQNQQT,1.173 fold
20,GIFMQTPSGQNQQT,0.252 fold
21,GSGQNQQLKSSAQT,0.716 fold

# Same assay, conditions: synthetic library passage 3, intravenous, RNA from brain of BALB/c mice, NGS, relative to wild-type AAV9
row,Sequence,Fold enrichment over AAV9 in the brain of Mice (BALB/c)
1,GSGQNQHSLPAHRT,0.742 fold
2,GSGQNIGHSLPQQT,0.478 fold
3,GSGQNLGLLGAQQT,0.226 fold
4,GSGQNQQVAGLNNT,0.492 fold
5,GSGQNQQWDSRRQT,0.825 fold
6,GSGGGLQHNQNQQT,0.778 fold
7,GSGQNQQTSQSPPT,0.478 fold
8,GSGQNQQKSLNGNT,0.851 fold
9,GSGMIHTTAQNQQT,0.276 fold
10,GTTAHQPSGQNQQT,0.275 fold
11,GSGQNQSHYPSQQT,0.402 fold

# System: brain
# Experiment: NGS fold enrichment of synthetic library (passage 3) in C57Bl/6 mice, first cross-species screen
# Format: in vivo
# Details: synthetic library passage 3, intravenous, RNA NGS, brain of C57Bl/6 mice, relative to wild-type AAV9
# Summary of the method: as §1
row,Sequence,Fold enrichment over AAV9 in the brain of Mice (C57Bl/6)
1,GSGQVHQAEVNQQT,0.436 fold
2,GFNGSPSSGQNQQT,2.338 fold
3,GDSSLRHSGQNQQT,0.662 fold
4,GGQVAPSSGQNQQT,1.433 fold
5,GMDHSRPSGQNQQT,0.918 fold
6,GSGQNQQTLPSLSL,0.527 fold
7,GSGQNQHSAPFNQT,0.759 fold
8,GPGLSGHSGQNQQT,1.154 fold
9,GSGQNQQTMIANIR,0.379 fold
10,GSGQILHSVPNQQT,0.398 fold
11,GWERSFVSGQNQQT,0.490 fold
12,GRGQNVSSVHRQQT,1.206 fold
13,GSGIQSSYSQNQQT,1.032 fold
14,GSGQNQQTAIYRNI,0.818 fold
15,GSAQVSMVGQNQQT,0.500 fold
16,GSGQNQQPSSRVTT,0.784 fold
17,GSGKVTKQSQNQQT,0.928 fold
18,GILLATPSGQNQQT,1.341 fold
19,GSGKGHSAGQNQQT,1.035 fold
20,GIFMQTPSGQNQQT,0.938 fold
21,GSGQNQQLKSSAQT,0.908 fold

# Same assay, conditions: synthetic library passage 3, intravenous, RNA from brain of C57Bl/6 mice, NGS, relative to wild-type AAV9
row,Sequence,Fold enrichment over AAV9 in the brain of Mice (C57Bl/6)
1,GSGQNQHSLPAHRT,0.911 fold
2,GSGQNIGHSLPQQT,0.740 fold
3,GSGQNLGLLGAQQT,0.524 fold
4,GSGQNQQVAGLNNT,0.449 fold
5,GSGQNQQWDSRRQT,1.059 fold
6,GSGGGLQHNQNQQT,1.137 fold
7,GSGQNQQTSQSPPT,0.851 fold
8,GSGQNQQKSLNGNT,0.586 fold
9,GSGMIHTTAQNQQT,0.678 fold
10,GTTAHQPSGQNQQT,0.726 fold
11,GSGQNQSHYPSQQT,0.644 fold

# System: brain, spinal cord, and DRG of the NHPs
# Experiment: NGS fold enrichment of synthetic library (passage 3) in NHPs, first cross-species screen
# Format: in vivo, cynomolgus macaques (Macaca fascicularis)
# Details: synthetic library passage 3, intravenous, RNA NGS, brain of NHPs, relative to wild-type AAV9
# Summary of the method: as §1
row,Sequence,Fold enrichment over AAV9 in the brain of NHPs
1,GSGQVHQAEVNQQT,1.825 fold
2,GFNGSPSSGQNQQT,2.609 fold
3,GDSSLRHSGQNQQT,2.194 fold
4,GGQVAPSSGQNQQT,2.581 fold
5,GMDHSRPSGQNQQT,1.627 fold
6,GSGQNQQTLPSLSL,1.084 fold
7,GSGQNQHSAPFNQT,1.969 fold
8,GPGLSGHSGQNQQT,1.571 fold
9,GSGQNQQTMIANIR,1.076 fold
10,GSGQILHSVPNQQT,1.752 fold
11,GWERSFVSGQNQQT,1.492 fold
12,GRGQNVSSVHRQQT,5.404 fold
13,GSGIQSSYSQNQQT,1.517 fold
14,GSGQNQQTAIYRNI,1.854 fold
15,GSAQVSMVGQNQQT,1.601 fold
16,GSGQNQQPSSRVTT,1.012 fold
17,GSGKVTKQSQNQQT,1.095 fold
18,GILLATPSGQNQQT,1.931 fold
19,GSGKGHSAGQNQQT,1.453 fold
20,GIFMQTPSGQNQQT,2.344 fold
21,GSGQNQQLKSSAQT,1.891 fold

# Same assay, conditions: synthetic library passage 3, intravenous, RNA NGS, spinal cord of NHPs, relative to wild-type AAV9
row,Sequence,Fold enrichment over AAV9 in the spinal cord of NHPs
1,GSGQVHQAEVNQQT,0.152 fold
2,GFNGSPSSGQNQQT,12.197 fold
3,GDSSLRHSGQNQQT,0.000 fold
4,GGQVAPSSGQNQQT,2.427 fold
5,GMDHSRPSGQNQQT,3.976 fold
6,GSGQNQQTLPSLSL,1.758 fold
7,GSGQNQHSAPFNQT,0.499 fold
8,GPGLSGHSGQNQQT,1.603 fold
9,GSGQNQQTMIANIR,0.000 fold
10,GSGQILHSVPNQQT,1.316 fold
11,GWERSFVSGQNQQT,0.943 fold
12,GRGQNVSSVHRQQT,0.000 fold
13,GSGIQSSYSQNQQT,15.978 fold
14,GSGQNQQTAIYRNI,2.207 fold
15,GSAQVSMVGQNQQT,1.332 fold
16,GSGQNQQPSSRVTT,2.179 fold
17,GSGKVTKQSQNQQT,0.000 fold
18,GILLATPSGQNQQT,8.205 fold
19,GSGKGHSAGQNQQT,0.936 fold
20,GIFMQTPSGQNQQT,6.198 fold
21,GSGQNQQLKSSAQT,1.197 fold

# Same assay, conditions: synthetic library passage 3, intravenous, RNA from brain of NHPs, NGS, relative to wild-type AAV9
row,Sequence,Fold enrichment over AAV9 in the brain of NHPs
1,GSGQNQHSLPAHRT,1.361 fold
2,GSGQNIGHSLPQQT,1.264 fold
3,GSGQNLGLLGAQQT,1.161 fold
4,GSGQNQQVAGLNNT,1.386 fold
5,GSGQNQQWDSRRQT,1.321 fold
6,GSGGGLQHNQNQQT,1.163 fold
7,GSGQNQQTSQSPPT,1.194 fold
8,GSGQNQQKSLNGNT,1.275 fold
9,GSGMIHTTAQNQQT,1.285 fold
10,GTTAHQPSGQNQQT,1.138 fold
11,GSGQNQSHYPSQQT,1.228 fold

# Same assay, conditions: synthetic library passage 3, intravenous, RNA from spinal cord of NHPs, NGS, relative to wild-type AAV9
row,Sequence,Fold enrichment over AAV9 in the spinal cord of NHPs
1,GSGQNQHSLPAHRT,0.700 fold
2,GSGQNIGHSLPQQT,6.183 fold
3,GSGQNLGLLGAQQT,1.458 fold
4,GSGQNQQVAGLNNT,3.218 fold
5,GSGQNQQWDSRRQT,0.531 fold
6,GSGGGLQHNQNQQT,4.098 fold
7,GSGQNQQTSQSPPT,1.208 fold
8,GSGQNQQKSLNGNT,8.573 fold
9,GSGMIHTTAQNQQT,0.105 fold
10,GTTAHQPSGQNQQT,0.211 fold
11,GSGQNQSHYPSQQT,4.315 fold
